Test results taken from patent publication US9737582B2, “Method for improving memory of a subject using a composition comprising Cistanche and Ginkgo extracts” (Access Business Group International LLC, priority 2014, dated 2017).

Key:
Type in all cases: cell-based, murine
hippocampal cultures [1] = assay: Acute NGF concentration-response on chronically treated hippocampal cultures, MEA neurochips; conditions: acute mNGF 3 ng/ml to 1 μg/ml
Method: FIG. 8 illustrates examples of the study to assess chronic effects of Cistanche tubulosa extract on maturation of a neuronal network. Hippocampal cultures on MEA neurochips were treated with 30 μg/ml Cistanche, 300 nM Donepezil, or a dimethyl sulfoxide (“DMSO”) vehicle control. At 28 days after repeated dose chronic treatment, spontaneous activity was measured, followed by recording of activity to acute NGF concentration-response curve.
FIG. 19A is a first portion of a heat map and FIG. 19B is a second portion of the heat map. The heat map illustrates concentration dependent effects of acute mouse nerve growth factor (“mNGF”) on network activity of chronically treated hippocampal cultures with the mixtures or components described above for FIG. 18.
The heat map illustrates significant changes on the 60 most representative parameters for each mNGF concentration, from 3 ng/ml to 1 μg/ml. The color code changes in activity parameters according to the percent changes (100:no change), with yellow/red=an increase and green/blue=a decrease.

[2] = system: hippocampal network morphology; assay: Immuno-histochemical analysis of recorded cultures, semi-automatic quantitative image analysis; conditions: chronic 4-28 days in vitro; 30 μg/ml Cistanche, 300 nM Donepezil
Excerpt: FIG. 5A is an example image associated with semi-automatic quantification of neurons/image, neurites/image, synapses/image, and synapse/neurite ratio. The image depicts color-merge of synapse (green), neurites (red), nuclei (blue), bar=50 μm.
FIG. 5B is an example image corresponding to synapse channel: color-inverted and analyzed for synapse particles (red labeled after automatic threshold, particle separation and size filter).
FIG. 9 illustrates examples of the study directed at immuno-histochemical analysis. Recorded cultures are further analyzed by immunocytochemistry, fluorescence microscopy and semi-automatic quantitative image analysis. Images are quantified per image for: cell number, neuronal number, neurite number, synapse number, % neurons, neurites per neuron, and synapses per neuron. […]
Recorded cultures were further analyzed by immunocytochemistry, fluorescent microscopy and quantitative image analysis for morphological findings. Semi-automatic quantification (mean±SEM, student's t-test: *p≦0.05; n=3 with 10-20 images each.)
FIG. 21 are images associated with semi-automatic quantification of total cells/field, percentage of neurons, neuritic density, and synaptic number/field. […] The rightmost images correspond to synapse channel: color inverted and analyzed for synapse particles.

hippocampal cultures [3] = assay: Chronic treatment of hippocampal cultures on MEA neurochips, spontaneous network activity; conditions: chronic treatment 4-28 days in vitro; 30 μg/ml Cistanche, 300 nM Donepezil
Excerpt: Microelectrode array (MEA) neurochips were utilized to analyze various examples. Specifically, use of MEA neurochips enabled stimulation and recording of bioelectricity with high spatial and temporal resolution, to glean neuroactivity of the Cistanche and Ginkgo extracts, alone and in combination, and with neuronal growth factors.
MEA neurochips are available from NeuroProof GmbH of Rostock, Germany. The electrophysiological properties of compounds can be evaluated using their ability for induction of activity changes in neuronal networks grown on MEA neurochips. Routine monitoring of internal dynamics of mammalian neuronal networks is possible. […]
FIG. 8 illustrates examples of the study to assess chronic effects of Cistanche tubulosa extract on maturation of a neuronal network. […] At 28 days after repeated dose chronic treatment, spontaneous activity was measured, followed by recording of activity to acute NGF concentration-response curve. […]
Multichannel recording delivered single neuron spike data and spike identification and separation were accomplished with a template-matching algorithm in real time, to allow the extracellular recording of action potentials from 256 neurons simultaneously. The action potentials or “spikes” were recorded in spike trains and clustered in bursts, which can be quantitatively described via direct spike train analysis. […]

| Molecule | effect of chronic treatment on the acute NGF response (hippocampal cultures [1]; chronic 4-28 days in vitro, 30 μg/ml Cistanche, 300 nM Donepezil, mixture at 10 and 30 μg/ml) | global synapse number [2] | spontaneous network activity (hippocampal cultures [3]) | effect of acute NGF alone on general activity (hippocampal cultures [1]; vehicle-treated cultures) |
| --- | --- | --- | --- | --- |
| COc1cc2c(cc1OC)C(=O)C(CC1CCN(Cc3ccccc3)CC1)C2 (stereo not shown) [Donepezil] | compensated the inhibitory acute NGF response | increase | enhanced the spontaneous network activity | – |
| NGF: mouse nerve growth factor applied acutely to cultures (protein, UniProt P01139 122-241, looked up, Beta-nerve growth factor, mouse nerve growth factor applied acutely to cultures) Beta-nerve growth factor: SSTHPVFHMGEFSVCDSVSVWVGDKTTATDIKGKEVTVLAEVNINNSVFRQYFFETKCRASNPVESGCRGIDSKHWNSYCTTTHTFVKALTTDEKQAAWRFIRIDTACVCVLSRKATRRG | – | – | – | inhibition of general activity |
